Measured values taken from patent publication US20040116436A1, “Treatment of dementia and parkinson's disease” (priority 2002, published 2004).
Like-named read-outs stand apart in the source and are kept apart here.

Assays:
alpha 2B receptor = alpha 2B receptor (Homo sapiens, UniProt P18089); experiment: cell-based
Description: (§1) In contrast, a method for measuring alpha receptor agonist selectivity comprises the RSAT (Receptor Selection and Amplification Technology) assay as reported in Messier et al., High Throughput Assays Of Cloned Adrenergic, Muscarinic, Neurokinin And Neurotrophin Receptors In Living Mammalian Cells, Pharmacol. Toxicol. 76:308-11 (1995) and has been adapted for use with alpha 2 receptors. This publication is incorporated by reference herein. The assay measures a receptor-mediated loss of contact inhibition that results in selective proliferation of receptor-containing cells in a mixed population of confluent cells. The increase in cell number is assessed with an appropriate transfected marker gene such as b-galactosidase, the activity of which can be easily measured in a 96-well format. Receptors that activate the G protein, Gq, elicit this response. Alpha2 receptors, which normally couple to Gi, activate the RSAT response when coexpressed with a hybrid Gq protein that has a Gi receptor recognition domain, called Gq/i5^2. See Conklin et al., Substitution Of Three Amino Acids Switches Receptor Specificity Of Gqa To That Of Gia, Nature 363:274-6. (1993) This reference is hereby incorporated by reference herein.
(§2) The data presented below was collected using the RSAT assay described above.
(§3) Efficacy of a given receptor or receptor subtype in accordance with the present invention is determined using the RSAT assay procedure described above.

alpha 2C receptor = alpha 2C receptor (Homo sapiens, UniProt P18825); experiment: cell-based
Description: as §1, §2, §3

[1] = in vivo, ip
[2] = test system: dopaminergic neurons in the ventral tegmental area; settings: MPTP mice; brimonidine 3 mg/kg/day
alpha 1A receptor = alpha 1A receptor (Homo sapiens, UniProt P35348); settings: RSAT assay; alpha 2 subtypes versus alpha 1A
[3] = test system: dopaminergic neurons in the substantia nigra
[4] = Description: 30 C57B1/B6 type mice (8-12 weeks old) are allowed to acclimate for 12-14 days before experimental use.

Row | SMILES | EC50 (alpha 2B receptor) [µM] | EC50 (alpha 2C receptor) [µM] | concentration at which sedative effect first becomes noticeable [1] | reduction of MPTP-induced neuron loss in the Ventral Tegmental area [2] | greater activity at each alpha 2 receptor subtype than at the alpha 1A receptor (alpha 1A receptor) | neuron loss in the substantia nigra versus MPTP-treated animals ([3]; MPTP mice, brimonidine 3 mg/kg/day) | Average Neuron Count (statistical error) ([3]; substantia nigra, TH-labeled neurons, 55-60 days post MPTP 40 mg/kg sc, brimonidine 3 mg/kg/day sc mini-pump 14 days) | Open Field activity versus vehicle + MPTP group ([4]; 10 and 30 days post MPTP, brimonidine 3 mg/kg/day) | forelimb extension impairment, tail hang test ([4]; during the period that the compound is administered) | forelimb extension impairment, tail hang test ([4]; post-dosing (after 14 days of compound administration))
1 | Cc1cccc([C@H](C)c2cnc[nH]2)c1C [Dexmedetomidine, dexmedetomidine] | 0.002 | 0.001 | – | – | – | – | – | – | – | –
2 | Clc1ccc2nsnc2c1NC1=NCCN1 [Tizanidine, tizanidine] | 0.127 | 1.69 | about 100 micrograms/kg | – | – | – | – | – | – | –
3 | Brc1c(NC2=NCCN2)ccc2nccnc12 [Brimonidine, brimonidine] | – | – | – | about 10% | at least 5.5 fold | significantly less neuron loss | 32 (±1) | no significant difference between this group and the vehicle group | does not reduce this impairment | does tend to reduce the impairment
